Experimental data from patent publication US12606533B2, “3-phenylpropylamine derivative” (DAIICHI SANKYO COMPANY, LIMITED, priority 2023, dated 2026).
Read-outs that look alike come from different tables or passages of the source.

Assays:
SF-1 = target: T1, SF-1 (Homo sapiens, UniProt Q13285); assay: SF1 degradation induction in NCI-H295R SF-1-HiBiT cells (HiBiT DC50); type: cell-based; conditions: 24 hr, concentration that induces 50% degradation of SF-1
T1 construct: NCI-H295R SF-1-HiBiT cells with HiBiT tag knocked in at the endogenous SF1 locus; host or cells: NCI-H295R SF-1-HiBiT (knock-in at endogenous locus)
How it was run: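 NCI-H295R cells carrying HiBiT-tagged SF-1, plated and grown 24 hr, then exposed to serially diluted compounds for 24 hr at 37° C. Remaining SF-1 read by lytic HiBiT luminescence; degradation rate from treated vs compound-free signal, DC50 as concentration giving 50% degradation.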

NCI-H295R cells = assay: Proliferation inhibitory action on NCI-H295R (CellTiter-Glo, 7 days); type: cell-based, human
How it was run: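 Compounds serially diluted in DMSO; cells seeded at 2×10^3 cells/well and cultured 7 days at 37° C, 5% CO2. CellTiter-Glo 2.0 luminescence read at day 0 and day 7; proliferation rate derived from compound-addition-day signal, untreated day-7 signal and treated day-7 signal.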

SMILES	DC50 (SF-1) [µM]	GI50 (NCI-H295R cells; Homo sapiens, NCI-H295R, 168 h) [µM]	GI50 (NCI-H295R cells) [µM]
COc1ccc([C@]2(CCN(Cc3ccc(C4=CC[C@H](CN5CCN(C(=O)c6ccc7c(c6)n(C)c(=O)n7C6CCC(=O)NC6=O)CC5)CC4)cc3)CC(C)(C)C(F)(F)F)CCOC(C)(C)C2)cc1 (stereo partly drawn) [BI2, 3-{5-[(4-{[(4R)-4′-{[{2-[(4R)-4-(4-Methoxyphenyl)-2,2-dimethyltetrahydro-2H-pyran-4-yl]ethyl)(3,3,3-trifluoro-2,2-dimethylpropyl)amino]methyl}-2,3,4,5-tetrahydro[biphenyl]-4-yl]methyl}piperazin-1-yl)carbonyl]-3-methyl-2-oxo-2,3-dihydro-1H-benzimidazol-1-yl}piperidine-2,6-dione]	0.011	0.079	–
COc1ccc([C@]2(CCN(Cc3ccc(C4=CC[C@H](C(=O)N5CCN(Cc6cc(F)c7c(c6)n(C)c(=O)n7C6CCC(=O)NC6=O)CC5)CC4)cc3)CC(C)(C)C(F)(F)F)CCOC(C)(C)C2)cc1 (stereo partly drawn) [BP6, 3-{7-Fluoro-5-[(4-{[(4R)-4′-{[{2-[(4R)-4-(4-methoxyphenyl)-2,2-dimethyltetrahydro-2H-pyran-4-yl]ethyl}(3,3,3-trifluoro-2,2-dimethylpropyl)amino]methyl}-2,3,4,5-tetrahydro[biphenyl]-4-yl]carbonyl}piperazin-1-yl)methyl]-3-methyl-2-oxo-2,3-dihydro-1H-benzimidazol-1-yl}piperidine-2,6-dione]	0.012	0.071	–
COc1ccc([C@]2(CCN(Cc3ccc(C4=CC[C@H](C(=O)N5CC(Nc6ccc7c8c6CCCn8c(=O)n7C6CCC(=O)NC6=O)C5)CC4)c(F)c3)CC(C)(C)C(F)(F)F)CCOC(C)(C)C2)cc1 (stereo partly drawn) [BW3, 3-{7-[(1-{[(4R)-2′-Fluoro-4′-{[{2-[(4R)-4-(4-methoxyphenyl)-2,2-dimethyltetrahydro-2H-pyran-4-yl]ethyl}(3,3,3-trifluoro-2,2-dimethylpropyl)amino]methyl}-2,3,4,5-tetrahydro[biphenyl]-4-yl]carbonyl}azetidin-3-yl)amino]-2-oxo-5,6-dihydro-4H-imidazo[4,5,1-ij]quinolin-1(2H)-yl}piperidine-2,6-dione]	0.0091	0.086	–
COc1ccc([C@]2(CCN(Cc3ccc(C4=CC[C@H](C(=O)N5CCC(Nc6ccc7c8c6CCCn8c(=O)n7C6CCC(=O)NC6=O)CC5)CC4)c(F)c3)CC(C)(C)C(F)(F)F)CCOC(C)(C)C2)cc1 (single isomer, unassigned) [CG1, (3S) or (3R)-{7-[(1-{[(4R)-2′-Fluoro-4′-{[{2-[(4R)-4-(4-methoxyphenyl)-2,2-dimethyltetrahydro-2H-pyran-4-yl]ethyl}(3,3,3-trifluoro-2,2-dimethylpropyl)amino]methyl}-2,3,4,5-tetrahydro[biphenyl]-4-yl]carbonyl}piperidin-4-yl)amino]-2-oxo-5,6-dihydro-4H-imidazo[4,5,1-ij]quinolin-1(2H)-yl}piperidine-2,6-dione]	0.0018	–	0.018
COc1ccc([C@]2(CCN(Cc3ccc(OC4CC5(CCN(CC(=O)Nc6ccc7c(c6)n(C)c(=O)n7C6CCC(=O)NC6=O)CC5)C4)cc3)CC(C)(C)C(F)(F)F)CCOC(C)(C)C2)cc1 (stereo partly drawn) [Example AE1, N-[1-(2,6-Dioxopiperidin-3-yl)-3-methyl-2-oxo-2,3-dihydro-1H-benzimidazol-5-yl]-2-[2-(4-{[{2-[(4R)-4-(4-methoxyphenyl)-2,2-dimethyltetrahydro-2H-pyran-4-yl]ethyl}(3,3,3-trifluoro-2,2-dimethylpropyl)amino]methyl}phenoxy)-7-azaspiro[3.5]nonan-7-yl]acetamide]	0.0085	0.04	–
COc1ccc([C@]2(CCN(Cc3ccc(C4=CC[C@H](CN5CCN(C(=O)c6ccc7c8c6CCCn8c(=O)n7[C@H]6CCC(=O)NC6=O)CC5)CC4)cc3)CC(C)(C)C(F)(F)F)CCOC(C)(C)C2)cc1 [BF6, (3S)-3-{7-[(4-{[(4R)-4′-{[{2-[(4R)-4-(4-Methoxyphenyl)-2,2-dimethyltetrahydro-2H-pyran-4-yl]ethyl}(3,3,3-trifluoro-2,2-dimethylpropyl)amino]methyl}-2,3,4,5-tetrahydro[biphenyl]-4-yl]methyl}piperazin-1-yl)carbonyl]-2-oxo-5,6-dihydro-4H-imidazo[4,5,1-ij}quinolin-1(2H)-yl}piperidine-2,6-dione]	0.01	0.075	–

Continued, in another order:

DC50 (SF-1) [µM]	GI50 (NCI-H295R cells; Homo sapiens, NCI-H295R, 168 h) [µM]	SMILES	GI50 (NCI-H295R cells) [µM]
0.0043	0.07	COc1ccc([C@]2(CCN(Cc3ccc(C4=CC[C@H](CN5CCN(C(=O)c6ccc7c8c6NCCn8c(=O)n7[C@H]6CCC(=O)NC6=O)CC5)CC4)cc3)CC(C)(C)C(F)(F)F)CCOC(C)(C)C2)cc1 [CE1, (3S)-3-{7-[(4-{[(4R)-4′-{[{2-[(4R)-4-(4-Methoxyphenyl)-2,2-dimethyltetrahydro-2H-pyran-4-yl]ethyl)(3,3,3-trifluoro-2,2-dimethylpropyl)amino]methyl}-2,3,4,5-tetrahydro[biphenyl]-4-yl]methyl}piperazin-1-yl)carbonyl]-2-oxo-5,6-dihydro-4H-imidazo[1,5,4-de]quinoxalin-1(2H)-yl}piperidine-2,6-dione]	–
0.0035	0.048	COc1ccc([C@]2(CCN(Cc3ccc(C4=CC[C@H](C(=O)N5CCC(Nc6cc7c(cc6F)n(C6CCC(=O)NC6=O)c(=O)n7C)CC5)CC4)cc3)CC(C)(C)C(F)(F)F)CCOC(C)(C)C2)cc1 (stereo partly drawn) [BT6, 3-{6-Fluoro-5-[(1-{[(4R)-4′-{[{2-[(4R)-4-(4-methoxyphenyl)-2,2-dimethyltetrahydro-2H-pyran-4-yl]ethyl}(3,3,3-trifluoro-2,2-dimethylpropyl)amino]methyl}-2,3,4,5-tetrahydro[biphenyl]-4-yl]carbonyl}piperidin-4-yl)amino]-3-methyl-2-oxo-2,3-dihydro-1H-benzimidazol-1-yl}piperidine-2,6-dione]	–
0.0071	0.052	COc1ccc([C@]2(CCN(Cc3ccc(C4=CC[C@H](C(=O)N5CCC(Nc6ccc7c(c6F)n(C)c(=O)n7C6CCC(=O)NC6=O)CC5)CC4)c(F)c3)CC(C)(C)C(F)(F)F)CCOC(C)(C)C2)cc1 (stereo partly drawn) [BX6, 3-{4-Fluoro-5-[(1-{[(4R)-2′-fluoro-4′-{[{2-[(4R)-4-(4-methoxyphenyl)-2,2-dimethyltetrahydro-2H-pyran-4-yl]ethyl}(3,3,3-trifluoro-2,2-dimethylpropyl)amino]methyl}-2,3,4,5-tetrahydro[biphenyl]-4-yl]carbonyl}piperidin-4-yl)amino]-3-methyl-2-oxo-2,3-dihydro-1H-benzimidazol-1-yl}piperidine-2,6-dione]	–
0.0049	0.023	COc1ccc([C@]2(CCN(Cc3ccc4c(cnn4C4CC5(CCN(CC(=O)Nc6ccc7c(c6)n(C)c(=O)n7C6CCC(=O)NC6=O)CC5)C4)c3)CC(C)(C)C(F)(F)F)CCOC(C)(C)C2)cc1 (stereo partly drawn) [BA6, N-[1-(2,6-Dioxopiperidin-3-yl)-3-methyl-2-oxo-2,3-dihydro-1H-benzimidazol-5-yl]-2-[2-(5-{[{2-[(4R)-4-(4-methoxyphenyl)-2,2-dimethyltetrahydro-2H-pyran-4-yl]ethyl)(3,3,3-trifluoro-2,2-dimethylpropyl)amino]methyl}-1H-indazol-1-yl)-7-azaspiro[3.5]nonan-7-yl]acetamide]	–
0.003	0.057	COc1ccc([C@]2(CCN(CC(C)(C)C(F)(F)F)C[C@H]3CC[C@H](c4ccc(NC(=O)C5CC(Nc6ccc7c(c6)n(C)c(=O)n7C6CCC(=O)NC6=O)C5)cc4)CC3)CCOC(C)(C)C2)cc1 (stereo partly drawn) [BD6, 3-{[1-(2,6-Dioxopiperidin-3-yl)-3-methyl-2-oxo-2,3-dihydro-1H-benzimidazol-5-yl]amino)-N-[4-(trans-4-{[{2-[(4R)-4-(4-methoxyphenyl)-2,2-dimethyltetrahydro-2H-pyran-4-yl]ethyl}(3,3,3-trifluoro-2,2-dimethylpropyl)amino]methyl}cyclohexyl)phenyl]cyclobutanecarbox amide]	–
0.0022	0.023	COc1ccc([C@]2(CCN(Cc3ccc(C4=CC[C@H](C(=O)N5CCC(Nc6ccc7c(c6)n(C)c(=O)n7C6CCC(=O)NC6=O)CC5)CC4)c(F)c3)CC(C)(C)C(F)(F)F)CCOC(C)(C)C2)cc1 (stereo partly drawn) [BR3, 3-{5-[(1-{[(4R)-2′-Fluoro-4′-{[{2-[(4R)-4-(4-methoxyphenyl)-2,2-dimethyltetrahydro-2H-pyran-4-yl]ethyl)(3,3,3-trifluoro-2,2-dimethylpropyl)amino]methyl}-2,3,4,5-tetrahydro[biphenyl]-4-yl]carbonyl}piperidin-4-yl)amino]-3-methyl-2-oxo-2,3-dihydro-1H-benzimidazol-1-yl}piperidine-2,6-dione]	–
0.004	0.027	COc1ccc([C@]2(CCN(Cc3ccc(C4=CC[C@@H](CN5CCN(C(=O)c6ccc7c8c6NCCn8c(=O)n7C6CCC(=O)NC6=O)CC5)CC4)cc3)CC(C)(C)C(F)(F)F)CCOC(C)(C)C2)cc1 (stereo partly drawn) [BZ7, 3-{7-[(4-{[(4S)-4′-{[{2-[(4R)-4-(4-Methoxyphenyl)-2,2-dimethyltetrahydro-2H-pyran-4-yl]ethyl}(3,3,3-trifluoro-2,2-dimethylpropyl)amino]methyl)-2,3,4,5-tetrahydro[biphenyl]-4-yl]methyl}piperazin-1-yl)carbonyl]-2-oxo-5,6-dihydro-4H-imidazo[1,5,4-de]quinoxalin-1(2H)-yl}piperidine-2,6-dione]	–
